Holding throughout (assay): Kinase selectivity, DiscoverX scanMAX Kinase assay panel (% control)
What all share (format): binding

Experiment [1] deals with T1, kinases of the scanMAX Kinase assay panel (Homo sapiens, UniProt Q9UIK4).
T1 construct: purchased DiscoverX Co. (contract measurement) scanMAX Kinase assay panel
As to conditions: DAPK2; 1 uM. The essentials: (§1)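 Single-point screen, 1 uM cpd in DMSO. % ctrl = (cpd − pos ctrl)/(neg ctrl − pos ctrl)×100; pos ctrl = 0%, DMSO neg ctrl = 100%. Hit cutoff <35%.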

Experiment [2] deals with T2, kinases of the scanMAX Kinase assay panel (Homo sapiens, UniProt P12931).
T2 construct: purchased DiscoverX Co. (contract measurement) scanMAX Kinase assay panel
The settings on record: kinase SRC; 1 uM in DMSO. Summed up:
as §1

Experiment [3] addresses T3, kinases of the scanMAX Kinase assay panel (Homo sapiens, UniProt Q15569).
T3 construct: purchased DiscoverX Co. (contract measurement) scanMAX Kinase assay panel
The settings on record: kinase TESK1; 1 uM in DMSO. The essentials: as §1

In experiment [4] the target is T4, kinases of the scanMAX Kinase assay panel (Homo sapiens, UniProt O75385).
T4 construct: purchased DiscoverX Co. (contract measurement) scanMAX Kinase assay panel
T4 sequence (O75385 1-1050): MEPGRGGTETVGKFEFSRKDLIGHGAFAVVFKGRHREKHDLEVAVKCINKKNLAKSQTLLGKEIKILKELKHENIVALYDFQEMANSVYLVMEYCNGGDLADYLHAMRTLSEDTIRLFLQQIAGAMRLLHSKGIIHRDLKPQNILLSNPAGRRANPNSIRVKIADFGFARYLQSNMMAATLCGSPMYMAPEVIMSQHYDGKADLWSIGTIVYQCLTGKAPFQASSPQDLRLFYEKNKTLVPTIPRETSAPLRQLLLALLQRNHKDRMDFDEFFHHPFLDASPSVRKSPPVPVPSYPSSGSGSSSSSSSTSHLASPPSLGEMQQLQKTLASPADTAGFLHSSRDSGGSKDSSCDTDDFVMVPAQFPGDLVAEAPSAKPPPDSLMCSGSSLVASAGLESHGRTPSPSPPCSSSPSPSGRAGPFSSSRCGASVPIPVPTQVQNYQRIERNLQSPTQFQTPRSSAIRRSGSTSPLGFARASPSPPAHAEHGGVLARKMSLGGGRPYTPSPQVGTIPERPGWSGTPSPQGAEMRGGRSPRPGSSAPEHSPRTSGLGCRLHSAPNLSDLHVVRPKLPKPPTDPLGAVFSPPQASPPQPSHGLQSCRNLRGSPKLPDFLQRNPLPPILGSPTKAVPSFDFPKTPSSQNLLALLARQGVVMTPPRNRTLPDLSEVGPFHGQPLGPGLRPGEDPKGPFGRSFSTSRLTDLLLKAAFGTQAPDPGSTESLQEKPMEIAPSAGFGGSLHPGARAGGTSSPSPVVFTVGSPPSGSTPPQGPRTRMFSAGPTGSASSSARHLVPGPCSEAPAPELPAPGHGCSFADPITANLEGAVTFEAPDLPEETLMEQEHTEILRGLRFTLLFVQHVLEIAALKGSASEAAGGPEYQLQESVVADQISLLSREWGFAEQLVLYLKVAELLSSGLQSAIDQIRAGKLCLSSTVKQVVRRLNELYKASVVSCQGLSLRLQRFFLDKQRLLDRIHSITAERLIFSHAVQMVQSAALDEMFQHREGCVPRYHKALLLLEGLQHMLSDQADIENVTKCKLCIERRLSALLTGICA
The settings on record: kinase ULK1; 1 uM in DMSO. Summed up:
as §1

Experiment [5] concerns the target T5, kinases of the scanMAX Kinase assay panel (Homo sapiens, UniProt Q5S007, G2019S).
T5 construct: purchased DiscoverX Co. (contract measurement) scanMAX Kinase assay panel
As to conditions: LRRK2(G2019S); 1 uM. The essentials: as §1

Experiment [6] deals with T6, kinases of the scanMAX Kinase assay panel (Homo sapiens, UniProt Q13177).
T6 construct: purchased DiscoverX Co. (contract measurement) scanMAX Kinase assay panel
The settings on record: PAK2; 1 uM. The essentials: as §1

The target in experiment [7] is T7, kinases of the scanMAX Kinase assay panel (Homo sapiens, UniProt P78368).
T7 construct: purchased DiscoverX Co. (contract measurement) scanMAX Kinase assay panel
The settings on record: CSNK1G2; 1 uM. Summed up:
as §1

The target in experiment [8] is T8, kinases of the scanMAX Kinase assay panel (Homo sapiens, UniProt P00519, E255K).
T8 construct: purchased DiscoverX Co. (contract measurement) scanMAX Kinase assay panel
As to conditions: ABL1(E255K)-phosphorylated; 1 uM. Summed up: as §1

Experiment [9] concerns the target T9, kinases of the scanMAX Kinase assay panel (Mycobacterium tuberculosis, UniProt P9WI81).
T9 construct: purchased DiscoverX Co. (contract measurement) scanMAX Kinase assay panel
As to conditions: read-out: % control. The essentials: as §1

The target in experiment [10] is T10, kinases of the scanMAX Kinase assay panel (Homo sapiens, UniProt Q59H18).
T10 construct: purchased DiscoverX Co. (contract measurement) scanMAX Kinase assay panel
T10 sequence (Q59H18 1-835): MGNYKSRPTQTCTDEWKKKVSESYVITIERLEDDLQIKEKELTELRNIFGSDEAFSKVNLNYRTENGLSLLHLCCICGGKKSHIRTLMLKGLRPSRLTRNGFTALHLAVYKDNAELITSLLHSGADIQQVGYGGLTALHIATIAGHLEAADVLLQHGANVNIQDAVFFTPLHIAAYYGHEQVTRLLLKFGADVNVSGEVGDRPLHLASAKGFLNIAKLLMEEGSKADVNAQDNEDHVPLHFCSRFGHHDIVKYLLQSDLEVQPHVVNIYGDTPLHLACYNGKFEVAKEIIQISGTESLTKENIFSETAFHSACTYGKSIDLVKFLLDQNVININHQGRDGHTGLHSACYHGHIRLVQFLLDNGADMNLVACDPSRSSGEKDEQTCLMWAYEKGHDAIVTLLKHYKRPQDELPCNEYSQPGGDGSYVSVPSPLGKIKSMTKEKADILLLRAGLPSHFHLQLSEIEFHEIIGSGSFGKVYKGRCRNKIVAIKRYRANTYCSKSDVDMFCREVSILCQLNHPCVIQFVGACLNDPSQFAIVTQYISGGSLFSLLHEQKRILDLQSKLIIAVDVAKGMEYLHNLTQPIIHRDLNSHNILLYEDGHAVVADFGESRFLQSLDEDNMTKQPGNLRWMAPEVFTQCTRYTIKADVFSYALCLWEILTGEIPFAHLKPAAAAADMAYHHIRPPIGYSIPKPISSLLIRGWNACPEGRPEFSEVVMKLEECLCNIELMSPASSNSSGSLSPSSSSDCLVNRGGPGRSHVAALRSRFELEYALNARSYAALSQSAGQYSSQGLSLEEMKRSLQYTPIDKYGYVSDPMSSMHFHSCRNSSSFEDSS
As to conditions: kinase TNNI3K; 1 uM in DMSO. The essentials: as §1

T1 sequence (Q9UIK4 whole entry): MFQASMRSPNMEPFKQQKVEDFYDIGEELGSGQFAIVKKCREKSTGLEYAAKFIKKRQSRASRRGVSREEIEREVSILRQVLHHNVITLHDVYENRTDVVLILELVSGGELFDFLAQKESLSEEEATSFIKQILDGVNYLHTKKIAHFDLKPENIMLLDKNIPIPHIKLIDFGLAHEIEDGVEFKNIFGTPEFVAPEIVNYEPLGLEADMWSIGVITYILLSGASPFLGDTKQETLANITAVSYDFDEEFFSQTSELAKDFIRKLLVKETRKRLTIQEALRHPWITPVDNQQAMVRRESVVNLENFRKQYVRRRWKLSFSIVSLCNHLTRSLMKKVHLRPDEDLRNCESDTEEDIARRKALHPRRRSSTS
T3 sequence (Q15569 whole entry): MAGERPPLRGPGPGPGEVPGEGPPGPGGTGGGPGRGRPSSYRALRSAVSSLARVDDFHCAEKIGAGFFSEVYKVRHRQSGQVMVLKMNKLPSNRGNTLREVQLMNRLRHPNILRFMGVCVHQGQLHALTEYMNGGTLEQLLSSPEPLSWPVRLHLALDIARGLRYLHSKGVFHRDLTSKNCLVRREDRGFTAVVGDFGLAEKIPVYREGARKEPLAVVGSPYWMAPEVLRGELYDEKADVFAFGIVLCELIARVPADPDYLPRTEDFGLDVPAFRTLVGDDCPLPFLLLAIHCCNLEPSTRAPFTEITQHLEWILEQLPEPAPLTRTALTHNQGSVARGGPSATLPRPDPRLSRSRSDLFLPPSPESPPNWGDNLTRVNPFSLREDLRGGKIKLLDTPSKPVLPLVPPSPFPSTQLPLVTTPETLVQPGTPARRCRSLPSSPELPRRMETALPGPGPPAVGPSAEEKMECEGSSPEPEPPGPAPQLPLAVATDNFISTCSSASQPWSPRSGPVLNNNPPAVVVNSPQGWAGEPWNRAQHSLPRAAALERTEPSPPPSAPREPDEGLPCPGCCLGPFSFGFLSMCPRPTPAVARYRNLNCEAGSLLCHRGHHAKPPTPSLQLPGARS
T8 sequence (P00519 whole entry E255K): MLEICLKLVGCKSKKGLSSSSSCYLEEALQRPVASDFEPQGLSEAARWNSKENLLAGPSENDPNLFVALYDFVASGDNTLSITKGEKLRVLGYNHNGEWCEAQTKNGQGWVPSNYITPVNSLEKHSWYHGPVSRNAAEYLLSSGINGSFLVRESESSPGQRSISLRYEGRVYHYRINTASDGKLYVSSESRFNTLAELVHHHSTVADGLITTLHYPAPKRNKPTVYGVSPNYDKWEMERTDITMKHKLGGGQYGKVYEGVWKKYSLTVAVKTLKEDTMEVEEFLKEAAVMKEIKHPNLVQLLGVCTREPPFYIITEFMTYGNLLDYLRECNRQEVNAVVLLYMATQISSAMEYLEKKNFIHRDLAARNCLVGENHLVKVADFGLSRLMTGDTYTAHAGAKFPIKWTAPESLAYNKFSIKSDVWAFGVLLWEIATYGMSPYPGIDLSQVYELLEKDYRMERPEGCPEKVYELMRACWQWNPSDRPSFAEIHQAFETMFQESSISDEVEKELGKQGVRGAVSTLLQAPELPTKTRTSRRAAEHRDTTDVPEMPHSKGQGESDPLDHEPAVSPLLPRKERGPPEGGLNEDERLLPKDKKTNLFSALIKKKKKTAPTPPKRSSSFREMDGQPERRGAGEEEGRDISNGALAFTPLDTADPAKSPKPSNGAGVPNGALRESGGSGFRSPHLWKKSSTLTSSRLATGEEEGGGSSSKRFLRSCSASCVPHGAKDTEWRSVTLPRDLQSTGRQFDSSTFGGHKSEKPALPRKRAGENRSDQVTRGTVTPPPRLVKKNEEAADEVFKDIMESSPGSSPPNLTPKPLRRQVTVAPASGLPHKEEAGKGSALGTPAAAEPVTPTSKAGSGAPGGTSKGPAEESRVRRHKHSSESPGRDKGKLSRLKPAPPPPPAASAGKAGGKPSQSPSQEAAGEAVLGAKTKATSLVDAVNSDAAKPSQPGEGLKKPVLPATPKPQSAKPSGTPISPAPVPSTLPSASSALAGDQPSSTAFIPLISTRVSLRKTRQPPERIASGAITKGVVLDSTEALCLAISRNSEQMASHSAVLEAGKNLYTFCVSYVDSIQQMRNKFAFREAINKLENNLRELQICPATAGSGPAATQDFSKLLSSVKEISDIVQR
T7 sequence (P78368 whole entry): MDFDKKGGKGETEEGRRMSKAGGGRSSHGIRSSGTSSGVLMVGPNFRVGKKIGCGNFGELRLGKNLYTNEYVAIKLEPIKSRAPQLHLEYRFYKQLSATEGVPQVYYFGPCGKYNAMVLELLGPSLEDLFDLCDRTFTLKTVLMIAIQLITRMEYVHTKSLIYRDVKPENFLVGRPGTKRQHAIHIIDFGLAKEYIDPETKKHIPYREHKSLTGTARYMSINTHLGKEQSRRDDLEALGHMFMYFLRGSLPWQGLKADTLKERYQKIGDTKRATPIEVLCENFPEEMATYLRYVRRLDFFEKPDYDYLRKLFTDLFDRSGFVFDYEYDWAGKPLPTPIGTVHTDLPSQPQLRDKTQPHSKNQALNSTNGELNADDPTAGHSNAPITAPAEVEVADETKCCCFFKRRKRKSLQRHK
T2 sequence (P12931 whole entry): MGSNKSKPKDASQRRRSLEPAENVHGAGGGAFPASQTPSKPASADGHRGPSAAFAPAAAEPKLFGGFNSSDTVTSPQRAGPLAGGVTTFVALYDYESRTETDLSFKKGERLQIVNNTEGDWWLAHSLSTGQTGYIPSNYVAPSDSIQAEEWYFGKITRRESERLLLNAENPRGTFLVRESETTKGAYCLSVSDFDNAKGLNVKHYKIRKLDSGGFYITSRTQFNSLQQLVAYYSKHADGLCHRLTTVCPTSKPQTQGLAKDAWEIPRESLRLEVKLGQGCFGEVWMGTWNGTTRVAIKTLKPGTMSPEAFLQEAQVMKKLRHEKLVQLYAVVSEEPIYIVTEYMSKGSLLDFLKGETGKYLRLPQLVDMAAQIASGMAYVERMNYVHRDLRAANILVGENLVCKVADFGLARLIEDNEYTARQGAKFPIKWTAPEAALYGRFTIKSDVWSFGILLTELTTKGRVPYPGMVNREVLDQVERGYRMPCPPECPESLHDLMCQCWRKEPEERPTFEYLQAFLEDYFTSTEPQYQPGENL
T6 sequence (Q13177 whole entry): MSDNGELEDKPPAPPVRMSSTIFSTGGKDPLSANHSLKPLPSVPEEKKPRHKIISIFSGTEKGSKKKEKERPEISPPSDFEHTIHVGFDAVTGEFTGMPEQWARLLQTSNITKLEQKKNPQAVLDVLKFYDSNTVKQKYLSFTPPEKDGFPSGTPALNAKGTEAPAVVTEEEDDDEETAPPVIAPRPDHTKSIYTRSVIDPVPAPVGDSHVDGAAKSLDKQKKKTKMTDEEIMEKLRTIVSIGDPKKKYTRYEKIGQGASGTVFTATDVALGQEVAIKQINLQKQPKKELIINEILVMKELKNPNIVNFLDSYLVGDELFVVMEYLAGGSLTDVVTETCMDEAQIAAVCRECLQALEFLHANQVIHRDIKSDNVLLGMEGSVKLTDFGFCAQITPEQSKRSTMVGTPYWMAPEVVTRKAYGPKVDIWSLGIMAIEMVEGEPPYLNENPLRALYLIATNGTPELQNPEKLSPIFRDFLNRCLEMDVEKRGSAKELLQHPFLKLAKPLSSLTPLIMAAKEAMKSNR
T9 sequence (P9WI81 whole entry): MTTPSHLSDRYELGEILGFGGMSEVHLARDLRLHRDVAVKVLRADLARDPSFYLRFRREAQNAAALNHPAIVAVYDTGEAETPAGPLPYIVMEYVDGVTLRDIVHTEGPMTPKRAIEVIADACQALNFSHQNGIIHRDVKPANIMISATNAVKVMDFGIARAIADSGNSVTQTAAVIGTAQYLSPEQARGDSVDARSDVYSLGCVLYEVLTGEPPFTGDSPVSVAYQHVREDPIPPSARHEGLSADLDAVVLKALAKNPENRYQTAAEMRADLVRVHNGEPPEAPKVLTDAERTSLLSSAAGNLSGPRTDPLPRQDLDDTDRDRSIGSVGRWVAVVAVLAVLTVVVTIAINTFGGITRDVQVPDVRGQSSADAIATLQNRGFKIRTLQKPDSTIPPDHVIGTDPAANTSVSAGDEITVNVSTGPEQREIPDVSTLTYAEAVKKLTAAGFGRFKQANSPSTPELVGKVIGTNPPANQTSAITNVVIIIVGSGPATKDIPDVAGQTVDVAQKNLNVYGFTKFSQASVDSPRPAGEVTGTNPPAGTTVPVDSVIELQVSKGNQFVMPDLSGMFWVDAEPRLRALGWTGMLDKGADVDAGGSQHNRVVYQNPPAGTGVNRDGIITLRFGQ

Regarding `CNc1nc(Nc2ccc(C(=O)N3CCOCC3)cc2OC)nc2[nH]cc(C#N)c12` [Example 1, 2-((2-methoxy-4-(morpholine-4-carbonyl)phenyl)amino)-4-(methylamino)-7H-pyrrolo[2,3-d]pyrimidine-5-carbonitrile], the remaining binding at 1 µM worked out at 11% in [1]; 90% in experiment [2]; 100% in [3]; 75% in experiment [4]; 0% in [5]; 95% in experiment [6]. Besides, the remaining binding at 1 µM in experiment [7] was found to be 58%; in [8] it was 91%; in experiment [9], 90%; in [10], 99%.
`CC1(Nc2nc(Nc3cnn([C@H]4CCN(C5COC5)C[C@@H]4F)c3Cl)nc3[nH]cc(C#N)c23)CC1` [Example 52, 2-((5-chloro-1-((3S,4S)-3-fluoro-1-(oxetane-3-yl)piperidine-4-yl)-1H-pyrazole-4-yl)amino)((1-methylcyclopropyl)amino)-7H-pyrrolo[2,3-d]pyrimidine-5-carbonitrile]: the remaining binding at 1 µM turned out to be 12% in experiment [1]; 4.6% in experiment [2]; 65% in experiment [3]; 20% in [4]; 2.6% in experiment [5]; 45% in experiment [6]. Also, the remaining binding at 1 µM in experiment [7] came to 0.1%; in experiment [8], 0.6%; in experiment [9], 1.1%; in [10] it was 93%.
`CCNc1nc(Nc2ccc(C(=O)N3CCC(N4CCOCC4)CC3)cc2OC)nc2[nH]cc(C(F)(F)F)c12` [Example 104, (4-((4-(ethylamino)-5-(trifluoromethyl)-7H-pyrrolo[2,3-d]pyrimidine-2-yl)amino)-3-methoxyphenyl)(4-morpholinopiperidine-1-yl)methanone]: the remaining binding at 1 µM turned out to be 35% in experiment [1]; 100% in [2]; 100% in experiment [3]; 100% in experiment [4]; 2% in experiment [5]; 71% in experiment [6]. Moreover, the remaining binding at 1 µM in [7] came out at 100%; in experiment [8], 100%; in [9], 83%; in experiment [10], 100%.

The values are drawn from patent publication US11208412B2 (DAEGU-GYEONGBUK MEDICAL INNOVATION FOUNDATION, priority 2017, dated 2021).
